{
  "source": "patent US9550000B2",
  "about": "“Compositions, methods, and systems for the synthesis and use of imaging agents” (Lantheus Medical Imaging, Inc., priority 2011, dated 2017)",
  "key": {"[1]": {"test": "Dofetilide induced ECG changes in sham control and regional cardiac denervated rabbits", "assay_type": "in vivo, rabbit", "settings": "for Dofetilide induced events: PVC / Dofetilide induced events: TdP: 4 μg/kg/min iv infusion", "protocol": "Dofetilide is an antiarrhythmic drug used clinically and known to cause QTc prolongation and possible TdP. The role of cardiac denervation in dofetilide induced changes in QTc interval, premature ventricular contraction (PVC) and TdP was assessed in sham control and RCSD rabbits at 3 weeks after surgery. Rabbits were anesthetized with ketamine (40 mg/kg, im) and xylazine (9 mg/kg, im), and dofetilide (1 and 4 μg/kg/min, Haorui Pharma-Chem Inc. Edison, N.J.) was infused for 10 minutes via a catheter in the marginal ear vein. Electrocardiogram (ECG) in lead II configuration was recorded with Ponemah system (v4.3, Data Science International) before and during the drug infusion. Heart rate (HR) and QT interval were derived from ECG waveforms. The QT interval was corrected by Fridericia method (QTcf=QT/RR^1/3)."}, "[2]": {"settings": "humans, 500 μg twice a day; cited from earlier work"}},
  "data": [
    {"smiles": "CN(CCOc1ccc(NS(C)(=O)=O)cc1)CCc1ccc(NS(C)(=O)=O)cc1", "note": "[dofetilide]", "values": [
      {"measurement": "Dofetilide induced events: PVC", "setting": "[1]; Denervated rabbits (n = 8)", "result": "5 (63%)"},
      {"measurement": "Dofetilide induced events: TdP", "setting": "[1]; Denervated rabbits (n = 8)", "result": "2 (25%)"},
      {"measurement": "Dofetilide induced events: PVC", "setting": "[1]; Sham rabbits (n = 6)", "result": "3 (50%)"},
      {"measurement": "Dofetilide induced events: TdP", "setting": "[1]; Sham rabbits (n = 6)", "result": "1 (17%)"},
      {"measurement": "ECG changes on intravenous administration", "setting": "[1]; sham control and RCSD rabbits, 1 and 4 μg/kg/min for 10 minutes", "result": "induced bradycardia and QT prolongation"},
      {"measurement": "bioavailability", "setting": "[2]", "result": "> 90", "unit": "%"}
    ]}
  ]
}
